Measured values: ChEMBL document CHEMBL1154655, “Curcumin analog cytotoxicity against breast cancer cells: exploitation of a redox-dependent mechanism” (Bioorg Med Chem Lett, 2009)

Assays:
A549 = assay: Inhibition of NF-kappaB nuclear translocation in human A549 cells; format: functional, cell-based
MDA-MB-435 = assay: Cytotoxicity against human MDA-MB-435 cells; format: functional, cell-based

Row | SMILES | IC50 (A549) [nM] | IC50 (MDA-MB-435) [nM]
1 | O=C1/C(=C/c2ccccc2F)CNC/C1=C\c1ccccc1F | 1300 | 1500
2 | O=C1/C(=C/c2ccccn2)CNC/C1=C\c1ccccn1 |  | 1000
3 | COc1cc(/C=C/C(=O)CC(=O)/C=C/c2ccc(O)c(OC)c2)ccc1O [CURCUMIN] | 13000 | 
